Tests used:
[1] = biological target: T1, PXR interaction with corepressor SMRT (Homo sapiens, UniProt O75469); assay: Mammalian two-hybrid corepressor interaction assay; type: cell-based; conditions: HepG2, 10 µM
T1 construct: VP16-PXR LBD(108–434); expressed in transfected cells; host or cells: HepG2
T1 sequence (O75469 108-434): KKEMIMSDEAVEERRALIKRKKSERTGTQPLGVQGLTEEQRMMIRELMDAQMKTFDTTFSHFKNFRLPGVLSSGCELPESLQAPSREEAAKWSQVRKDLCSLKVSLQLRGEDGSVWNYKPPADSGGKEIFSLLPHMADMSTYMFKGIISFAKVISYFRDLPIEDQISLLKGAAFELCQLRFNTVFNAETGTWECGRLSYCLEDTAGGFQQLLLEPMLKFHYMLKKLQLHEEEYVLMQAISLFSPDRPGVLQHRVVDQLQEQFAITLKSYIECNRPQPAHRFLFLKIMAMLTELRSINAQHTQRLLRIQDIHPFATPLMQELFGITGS
T1 sequence (P19793 1-462 partner): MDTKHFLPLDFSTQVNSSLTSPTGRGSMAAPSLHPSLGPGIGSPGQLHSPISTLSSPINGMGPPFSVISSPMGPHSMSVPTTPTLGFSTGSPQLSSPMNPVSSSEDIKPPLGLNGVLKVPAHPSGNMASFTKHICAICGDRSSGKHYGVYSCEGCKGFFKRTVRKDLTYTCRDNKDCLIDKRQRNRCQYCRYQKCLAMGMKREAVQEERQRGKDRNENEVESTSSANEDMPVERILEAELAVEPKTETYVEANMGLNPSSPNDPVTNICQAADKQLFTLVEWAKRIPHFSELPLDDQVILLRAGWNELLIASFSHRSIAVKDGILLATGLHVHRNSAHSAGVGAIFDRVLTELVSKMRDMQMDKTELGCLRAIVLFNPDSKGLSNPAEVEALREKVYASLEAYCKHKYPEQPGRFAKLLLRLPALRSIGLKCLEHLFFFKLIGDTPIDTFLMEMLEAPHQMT
Method: In mammalian two-hybrid corepressor/coactivator interaction assays, per well 0.24 µg pGL4-G5, 0.01 µg pGL4.75[hRluc/CMV], 0.03 µg expression plasmid encoding VP16-AD/PXR LBD fusion, and 0.03 µg expression plasmids encoding GAL4-DBD/SRC1-RID or GAL4-DBD/SMRT-RID fusions, respectively, were used. For the SMRT corepressor interaction assay, additionally 0.015 µg of RXRα expression plasmid was included.

CAR1 = biological target: T2, CAR1 (Homo sapiens, UniProt Q14994); assay: Nuclear receptor selectivity reporter assay, CAR1; type: cell-based; conditions: HepG2, 10 µM
T2 construct: expressed in transfected cells; host or cells: HepG2
T2 sequence (Q14994 1-348 isoform Q14994-2): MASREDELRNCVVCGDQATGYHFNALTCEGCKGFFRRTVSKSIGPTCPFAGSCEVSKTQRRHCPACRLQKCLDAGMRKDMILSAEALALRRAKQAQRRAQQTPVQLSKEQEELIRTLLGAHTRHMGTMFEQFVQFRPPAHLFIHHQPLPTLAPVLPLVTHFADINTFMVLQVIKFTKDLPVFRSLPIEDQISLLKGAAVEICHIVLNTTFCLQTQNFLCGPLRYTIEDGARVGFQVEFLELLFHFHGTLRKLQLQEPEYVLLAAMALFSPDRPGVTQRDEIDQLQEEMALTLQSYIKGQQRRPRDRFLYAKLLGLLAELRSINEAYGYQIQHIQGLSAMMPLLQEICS
Method: (§1) For testing nuclear receptor selectivity and LBP-filled PXR mutant activation, transient batch transfection was conducted as above, but with HepG2 cells and the following plasmids, with amounts per well of 0.23–0.27 µg pGL4-CYP3A4(-7830Δ7208-364) or pGL3(DR3)3Tk (as reporter for VDR), 0.01 µg pMetLuc2control, and 0.03 µg either CAR1, CAR3, VDR, or PXR(S208W/S247W/C284W) expression plasmids. In addition, 0.03 µg RXRα expression plasmid was added to CAR3 transfections. Metridia luciferase activity was measured from 10 µL of medium supernatant after adding 100 µL Renilla luciferase assay solution.
(§2) Figure 6 Selectivity of novel PXR ligands within the NR1I group of nuclear receptors. HepG2 cells were transiently transfected with CYP3A4 reporter and expression plasmids encoding (A) CAR1 or (B) CAR3, or (C) direct repeat (DR3)3 reporter and expression plasmid encoding VDR. Cells were treated with 0.2% DMSO or 10 µM chemicals as indicated. 1α,25(OH)2D3 was used at 1 µM.

CAR3 = biological target: T3, CAR3 (Homo sapiens, UniProt Q14994, DEL233-236); assay: Nuclear receptor selectivity reporter assay, CAR3; type: cell-based; conditions: for impairment of ligand-induced activation of CAR3 by CITCO: HepG2, 10 µM compound + 10 µM CITCO
T3 construct: expressed in transfected cells; host or cells: HepG2
T3 sequence (Q14994 with tags, fused parts or gaps isoform Q14994-8 DEL233-236): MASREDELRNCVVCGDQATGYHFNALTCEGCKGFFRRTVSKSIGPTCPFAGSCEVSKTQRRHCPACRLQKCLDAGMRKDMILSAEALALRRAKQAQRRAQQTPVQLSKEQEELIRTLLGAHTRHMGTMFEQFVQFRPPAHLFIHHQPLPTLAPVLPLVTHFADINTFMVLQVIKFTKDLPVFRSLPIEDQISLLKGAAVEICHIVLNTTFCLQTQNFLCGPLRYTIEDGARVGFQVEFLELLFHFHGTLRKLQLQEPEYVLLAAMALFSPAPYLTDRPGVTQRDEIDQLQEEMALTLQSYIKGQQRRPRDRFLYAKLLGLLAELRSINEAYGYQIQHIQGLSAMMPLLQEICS
T3 sequence (P19793 1-462 partner): T1 sequence (P19793 1-462 partner)
Method: as §1, §2

VDR = biological target: T4, VDR (Homo sapiens, UniProt P11473); assay: Nuclear receptor selectivity reporter assay, VDR; type: cell-based; conditions: for reduction of ligand-induced VDR activation: HepG2, 10 µM compound + 1 µM 1α,25(OH)2D3
T4 construct: expressed in transfected cells; host or cells: HepG2
T4 sequence (P11473 1-427): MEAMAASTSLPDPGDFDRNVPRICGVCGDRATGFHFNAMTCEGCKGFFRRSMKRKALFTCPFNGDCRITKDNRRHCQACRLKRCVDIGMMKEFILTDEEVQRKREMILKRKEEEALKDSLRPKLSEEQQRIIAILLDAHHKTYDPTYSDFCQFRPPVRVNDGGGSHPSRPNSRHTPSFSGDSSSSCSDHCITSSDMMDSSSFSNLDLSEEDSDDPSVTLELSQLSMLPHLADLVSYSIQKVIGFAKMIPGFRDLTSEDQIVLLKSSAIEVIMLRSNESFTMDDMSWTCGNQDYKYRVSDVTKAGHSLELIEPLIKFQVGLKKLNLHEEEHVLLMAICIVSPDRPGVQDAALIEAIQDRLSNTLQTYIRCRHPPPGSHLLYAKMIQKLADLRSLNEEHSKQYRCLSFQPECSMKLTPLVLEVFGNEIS
Method: as §1, §2

CYP3A4 = assay: PXR target gene mRNA expression in LS174T cells (RT-qPCR); conditions: 10 µM single treatment, 48 h (109) or 72 h (73, 100)
Method: In chemical treatments, phenol red-free DMEM was used, and regular FBS was replaced by dextran-coated charcoal-treated FBS. For gene expression analyses, 0.3 × 10^6 LS174T cells were seeded per well of a 12-well plate. The next day, chemical treatment was initiated for 48–72 h, with daily medium change.
Total RNA was prepared from LS174T and HepaRG cells using the NucleoSpin RNA kit (Macherey-Nagel, Düren, Germany). RNA integrity was analyzed by formaldehyde-agarose gel electrophoresis. First strand cDNA was synthesized as described earlier [37]. Relative quantification analyses were conducted with TaqMan RT-PCR utilizing the BioMark HD system and FLEX Six Gene Expression Integrated Fluidic Circuits (Fluidigm, South San Francisco, CA, USA) as described previously [34]. TaqMan gene expression assays were either the commercially available predesigned assays Hs00184500_m1 (ABCB1) and Hs00604506_m1 (CYP3A4) (Thermo Fischer Scientific) or have been described previously: CYP2B6 [31] and 18S rRNA [39]. Data were analyzed as described previously [37]. Gene expression levels were normalized to respective 18S rRNA levels.

SMILES	effect on constitutive interaction of PXR with corepressor SMRT [1]	suppression of constitutive activity of CAR1 (CAR1) [%]	activation of CAR3 on their own (CAR3; HepG2, 10 µM)	impairment of ligand-induced activation of CAR3 by CITCO (CAR3)	activation of VDR on their own (VDR; HepG2, 10 µM)	reduction of ligand-induced VDR activation (VDR)	expression of CYP3A4 mRNA (CYP3A4)	activation of CAR1 (CAR1)	activation of CAR3, % of the effect of CITCO (CAR3; HepG2, 10 µM) [%]	activation of VDR, % of the effect of 1α,25-dihydroxy vitamin D3 (VDR; HepG2, 10 µM) [%]
Cc1ccc(NC(=O)Cc2ccccc2)cc1Nc1ccc2c(c1)CCCCC2=O [Compound 73]	impaired the constitutive interaction of PXR with the corepressor	30	Neither CAR3 nor VDR were activated	46%	Neither CAR3 nor VDR were activated	51%	induced CYP3A4 expression, which was comparable to induction by rifampicin	–	–	–
O=C(Cc1ccccc1)Nc1ccc(F)c(Nc2ccc3c(c2)CCCCC3=O)c1 [Compound 100]	impaired the constitutive interaction of PXR with the corepressor	30	Neither CAR3 nor VDR were activated	no respective effects	Neither CAR3 nor VDR were activated	no respective effects	induced CYP3A4 expression, which was comparable to induction by rifampicin	–	–	–
O=C(Nc1ccc(F)c(Nc2ccc3c(c2)CCCCC3=O)c1)c1cccc(F)c1 [Compound 109]	impaired the constitutive interaction of PXR with the corepressor	–	–	–	–	–	induced both genes	did not reach statistical significance	12	5
